# System: 299254-011-R-J1-PDC complex spheroids viability
# Assay: Anticancer human tumor 299254-011-R-J1-PDC patient-derived melanoma cell line growth inhibition [GQUAD]
# Details: for IC50: curve of first compound; for viability, T/C: stronger effect = lower value
# Method in brief: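 Multi-cell-type spheroids of tumor cells with HUVEC and mesenchymal stem cells, treated with drug combinations. Concentrations descend in half-log steps from near clinical Cmax, or from 10 microM where Cmax is unknown; viability read-out.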
# [1] = second compound 0.0316 µM, first compound 0.000999 µM
# [2] = second compound 0.0316 µM, first compound 0.00316 µM
# [3] = second compound 0.0316 µM, first compound 0.00999 µM
# [4] = second compound 0.0316 µM, first compound 0.0316 µM
# [5] = second compound 0.0316 µM, first compound 0.0999 µM
# [6] = second compound 0.0316 µM, first compound 0.316 µM
# [7] = second compound 0.1 µM, first compound 0.000999 µM
# [8] = second compound 0.1 µM, first compound 0.00316 µM
# [9] = second compound 0.1 µM, first compound 0.00999 µM
# [10] = second compound 0.1 µM, first compound 0.0316 µM
# [11] = second compound 0.1 µM, first compound 0.0999 µM
# [12] = second compound 0.1 µM, first compound 0.316 µM
# [13] = second compound 0.316 µM, first compound 0.000999 µM
# [14] = second compound 0.316 µM, first compound 0.00316 µM
# [15] = second compound 0.316 µM, first compound 0.00999 µM
# [16] = second compound 0.316 µM, first compound 0.0316 µM
# [17] = second compound 0.316 µM, first compound 0.0999 µM
# [18] = second compound 0.316 µM, first compound 0.316 µM
# [19] = second compound 1 µM, first compound 0.000999 µM
# [20] = second compound 1 µM, first compound 0.00316 µM
# [21] = second compound 1 µM, first compound 0.00999 µM
# [22] = second compound 1 µM, first compound 0.0316 µM
# [23] = second compound 1 µM, first compound 0.0999 µM
# [24] = second compound 1 µM, first compound 0.316 µM
# [25] = second compound 3.16 µM, first compound 0.000999 µM
# [26] = second compound 3.16 µM, first compound 0.00316 µM
# [27] = second compound 3.16 µM, first compound 0.00999 µM
# [28] = second compound 3.16 µM, first compound 0.0316 µM
# [29] = second compound 3.16 µM, first compound 0.0999 µM
# [30] = second compound 3.16 µM, first compound 0.316 µM
# [31] = second compound 10 µM, first compound 0.000999 µM
# [32] = second compound 10 µM, first compound 0.00316 µM
# [33] = second compound 10 µM, first compound 0.00999 µM
# [34] = second compound 10 µM, first compound 0.0316 µM
# [35] = second compound 10 µM, first compound 0.0999 µM
# [36] = second compound 10 µM, first compound 0.316 µM
# [37] = second compound 0.0316 µM, first compound 0.1 µM
# [38] = second compound 0.0316 µM, first compound 1 µM
# [39] = second compound 0.0316 µM, first compound 3.16 µM
# [40] = second compound 0.0316 µM, first compound 10 µM
# [41] = second compound 0.1 µM, first compound 0.1 µM
# [42] = second compound 0.1 µM, first compound 1 µM
# [43] = second compound 0.1 µM, first compound 3.16 µM
# [44] = second compound 0.1 µM, first compound 10 µM
# [45] = second compound 0.316 µM, first compound 0.1 µM
# [46] = second compound 0.316 µM, first compound 1 µM
# [47] = second compound 0.316 µM, first compound 3.16 µM
# [48] = second compound 0.316 µM, first compound 10 µM
# [49] = second compound 1 µM, first compound 0.1 µM
# [50] = second compound 1 µM, first compound 1 µM
# [51] = second compound 1 µM, first compound 3.16 µM
# [52] = second compound 1 µM, first compound 10 µM
# [53] = second compound 3.16 µM, first compound 0.1 µM
# [54] = second compound 3.16 µM, first compound 1 µM
# [55] = second compound 3.16 µM, first compound 3.16 µM
# [56] = second compound 3.16 µM, first compound 10 µM
# [57] = second compound 10 µM, first compound 0.1 µM
# [58] = second compound 10 µM, first compound 1 µM
# [59] = second compound 10 µM, first compound 3.16 µM
# [60] = second compound 10 µM, first compound 10 µM
# 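Note: spheroids exposed to the agents for seven days before readout.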
# 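Throughout, for viability, T/C: percent viability relative to DMSO vehicle control wells = 100%.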
smiles,measurement,setting,value
CC[C@@]1(O)C(=O)OCc2c1cc1n(c2=O)Cc2cc3c(CN(C)C)c(O)ccc3nc2-1 + Cc1[nH]c2ccc(F)cc2c1-c1nc2c3cccnc3c3ncccc3c2[nH]1,IC50,second compound 0.0316 µM,> 0.316 µM
same,IC50,second compound 0.1 µM,> 0.316 µM
same,IC50,second compound 0.316 µM,> 0.316 µM
same,IC50,second compound 1 µM,> 0.316 µM
same,IC50,second compound 3.16 µM,> 0.316 µM
same,IC50,second compound 10 µM,> 0.316 µM
same,"viability, T/C",[1],119%
same,"viability, T/C",[2],92.6%
same,"viability, T/C",[3],102%
same,"viability, T/C",[4],85.8%
same,"viability, T/C",[5],86%
same,"viability, T/C",[6],79.4%
same,"viability, T/C",[7],115%
same,"viability, T/C",[8],105%
same,"viability, T/C",[9],112%
same,"viability, T/C",[10],78.2%
same,"viability, T/C",[11],109%
same,"viability, T/C",[12],74.8%
same,"viability, T/C",[13],86.2%
same,"viability, T/C",[14],88.3%
same,"viability, T/C",[15],89.2%
same,"viability, T/C",[16],106%
same,"viability, T/C",[17],93.2%
same,"viability, T/C",[18],77.7%
same,"viability, T/C",[19],97%
same,"viability, T/C",[20],103%
same,"viability, T/C",[21],98.2%
same,"viability, T/C",[22],101%
same,"viability, T/C",[23],87.2%
same,"viability, T/C",[24],86.9%
same,"viability, T/C",[25],87.2%
same,"viability, T/C",[26],116%
same,"viability, T/C",[27],95%
same,"viability, T/C",[28],111%
same,"viability, T/C",[29],96.8%
same,"viability, T/C",[30],101%
same,"viability, T/C",[31],95%
same,"viability, T/C",[32],97.8%
same,"viability, T/C",[33],85.1%
same,"viability, T/C",[34],85.3%
same,"viability, T/C",[35],116%
same,"viability, T/C",[36],79.8%
CC(C)n1c(=O)n(C)c2cnc3cc(F)c(-c4ccc(OCCCN5CCCCC5)nc4)cc3c21 + Cc1cnc(CNC(=O)c2c(=O)c3ccc(N4CCCN(C)CC4)nc3n3c2sc2ccccc23)cn1,IC50,second compound 0.0316 µM,> 10 µM
same,IC50,second compound 0.1 µM,7.38 µM
same,IC50,second compound 0.316 µM,2.38 µM
same,IC50,second compound 1 µM,4.09 µM
same,IC50,second compound 3.16 µM,1.36 µM
same,IC50,second compound 10 µM,< 0.0316 µM
same,"viability, T/C",[4],94.4%
same,"viability, T/C",[37],79.1%
same,"viability, T/C",[6],85.8%
same,"viability, T/C",[38],73%
same,"viability, T/C",[39],69.7%
same,"viability, T/C",[40],51%
same,"viability, T/C",[10],96.9%
same,"viability, T/C",[41],96.4%
same,"viability, T/C",[12],77.3%
same,"viability, T/C",[42],87.8%
same,"viability, T/C",[43],63.1%
same,"viability, T/C",[44],44.4%
same,"viability, T/C",[16],77.4%
same,"viability, T/C",[45],87.2%
same,"viability, T/C",[18],65.2%
same,"viability, T/C",[46],55.7%
same,"viability, T/C",[47],53%
same,"viability, T/C",[48],39.5%
same,"viability, T/C",[22],56.4%
same,"viability, T/C",[49],56.6%
same,"viability, T/C",[24],66.9%
same,"viability, T/C",[50],54.7%
same,"viability, T/C",[51],58.1%
same,"viability, T/C",[52],22.4%
same,"viability, T/C",[28],55.4%
same,"viability, T/C",[53],78.3%
same,"viability, T/C",[30],64%
same,"viability, T/C",[54],53.5%
same,"viability, T/C",[55],35.6%
same,"viability, T/C",[56],13.6%
same,"viability, T/C",[34],0.37%
same,"viability, T/C",[57],12.4%
same,"viability, T/C",[36],12.2%
same,"viability, T/C",[58],3.21%
same,"viability, T/C",[59],0.36%
same,"viability, T/C",[60],0.31%
Cc1[nH]c2ccccc2c1CCNCc1ccc(/C=C/C(=O)NO)cc1 + Cc1cnc(CNC(=O)c2c(=O)c3ccc(N4CCCN(C)CC4)nc3n3c2sc2ccccc23)cn1,IC50,second compound 0.0316 µM,0.139 µM
same,IC50,second compound 0.1 µM,0.172 µM
same,IC50,second compound 0.316 µM,0.101 µM
same,IC50,second compound 1 µM,0.0484 µM
same,IC50,second compound 3.16 µM,0.0455 µM
same,IC50,second compound 10 µM,< 0.000999 µM
same,"viability, T/C",[1],92.3%
same,"viability, T/C",[2],84.4%
same,"viability, T/C",[3],94.6%
same,"viability, T/C",[4],80.3%
same,"viability, T/C",[5],65.2%
same,"viability, T/C",[6],14.4%
same,"viability, T/C",[7],92.7%
same,"viability, T/C",[8],106%
same,"viability, T/C",[9],97.1%
same,"viability, T/C",[10],80.7%
same,"viability, T/C",[11],87.6%
same,"viability, T/C",[12],10.7%
same,"viability, T/C",[13],107%
same,"viability, T/C",[14],92.4%
same,"viability, T/C",[15],97.3%
same,"viability, T/C",[16],91.3%
same,"viability, T/C",[17],50.4%
same,"viability, T/C",[18],10.3%
same,"viability, T/C",[19],86.5%
same,"viability, T/C",[20],103%
same,"viability, T/C",[21],79.7%
same,"viability, T/C",[22],63.4%
same,"viability, T/C",[23],28.6%
same,"viability, T/C",[24],4.65%
same,"viability, T/C",[25],82.8%
same,"viability, T/C",[26],77.7%
same,"viability, T/C",[27],68.4%
same,"viability, T/C",[28],63.5%
same,"viability, T/C",[29],28%
same,"viability, T/C",[30],0.2%
same,"viability, T/C",[31],26.3%
same,"viability, T/C",[32],8.63%
same,"viability, T/C",[33],0.47%
same,"viability, T/C",[34],0.44%
same,"viability, T/C",[35],0.35%
same,"viability, T/C",[36],0.26%
CC1COCCN1c1cc(C2(S(C)(=N)=O)CC2)nc(-c2ccnc3[nH]ccc23)n1 (stereo not drawn) + CN(C)c1ccc(Nc2c3ccc(NC(=O)CCN4CCCC4)cc3nc3cc(NC(=O)CCN4CCCC4)ccc23)cc1,IC50,second compound 0.0316 µM,6.24 µM
same,IC50,second compound 0.1 µM,3.93 µM
same,IC50,second compound 0.316 µM,5.06 µM
same,IC50,second compound 1 µM,4.48 µM
same,IC50,second compound 3.16 µM,3.63 µM
same,IC50,second compound 10 µM,2.91 µM
same,"viability, T/C",[4],99.6%
same,"viability, T/C",[37],106%
same,"viability, T/C",[6],98%
same,"viability, T/C",[38],93.1%
same,"viability, T/C",[39],75.6%
same,"viability, T/C",[40],32.2%
same,"viability, T/C",[10],116%
same,"viability, T/C",[41],128%
same,"viability, T/C",[12],101%
same,"viability, T/C",[42],77.5%
same,"viability, T/C",[43],59.7%
same,"viability, T/C",[44],27.9%
same,"viability, T/C",[16],105%
same,"viability, T/C",[45],98.2%
same,"viability, T/C",[18],131%
same,"viability, T/C",[46],82.4%
same,"viability, T/C",[47],71.4%
same,"viability, T/C",[48],23.5%
same,"viability, T/C",[22],114%
same,"viability, T/C",[49],95.3%
same,"viability, T/C",[24],85%
same,"viability, T/C",[50],78%
same,"viability, T/C",[51],65.5%
same,"viability, T/C",[52],27.9%
same,"viability, T/C",[28],125%
same,"viability, T/C",[53],100%
same,"viability, T/C",[30],87.3%
same,"viability, T/C",[54],80.4%
same,"viability, T/C",[55],53.2%
same,"viability, T/C",[56],28.3%
same,"viability, T/C",[34],105%
same,"viability, T/C",[57],117%
same,"viability, T/C",[36],101%
same,"viability, T/C",[58],98%
same,"viability, T/C",[59],46.1%
same,"viability, T/C",[60],32%

# — PubChem BioAssay AID2060513 (Molecular Pharmacology Branch, DTP, NCI, 2025)
